Reference: PMC9791335 (Heliyon, 2022)

Target: lysine-specific demethylase 1 (LSD1) (Homo sapiens, UniProt O60341)
Experiment: HRP-coupled fluorescence
Format: biochemical

COc1cc(CNC(=O)CCCCCCC(C)C)ccc1O [DHC, dihydrocapsaicin]
% inhibition at 10 μM: 76.5
